Results as given in patent US12202829B2, “Heterocyclic compound” (FIMECS, Inc., priority 2018, dated 2025).
Where a name gives a salt, the structure may show the parent alone.

Target: T1, human XIAP_BIR3 domain purified protein (Homo sapiens, UniProt P98170)
T1 construct: purchased R & D
Experiment: XIAP binding inhibitory activity, HTRF method with b-Smac ligand
Details: second symbol of the cell; read-out: XIAP binding 50% inhibitory concentration (IC50 value)
Procedure: Human XIAP binding inhibitory activity were measured by the Homogeneous Time Resolved Fluorescence (HTRF) method with using commercially available human XIAP_BIR3 domain purified protein (R & D) and as a ligand a Smac N-terminal peptide (AVPIAQK (SEQ ID NO: 1)) (hereinafter referred to as “b-Smac”; Peptide Research Laboratories, Inc.) biotinylated at the C-terminus according to a conventional method.
The HTRF method will be described in detail below. A test compound diluted with a reaction buffer was added to a 384-well white shallow bottom plate (Greiner 784076) at 1 μL/well and flash centrifuged for 30 seconds. Subsequently, human XIAP_BIR3 domain purified protein was diluted with the reaction buffer (25 mM HEPES Buffer containing 100 mM NaCl, 0.1% BSA, and 0.1% triton X-100, pH 7.5) to obtain a 90 nM sample diluent, and the resultant sample diluent was added to the above-mentioned white superficial plate at 4.5 μL/well and flash centrifuged for 30 seconds. Subsequently, b-Smac diluted to 90 nM with the reaction buffer was added to the above-mentioned white superficial plat at 4.5 μL/well and flash centrifuged for 30 seconds. A mixed solution of Anti-6 HIS-Cryptate (Eu3+Cryptate-conjugated mouse monoclonal antibody anti-6 Histidine; cisbio) and Streptavidin-XL^ent! (Highgrade XL665-conjugated streptavidin; cisbio) both diluted 100-fold with HTRF detection buffer (cisbio) at a volume ratio of 1:1 was added to the above white superficial plate at 10 μL/well. After flash centrifuging the white shallow bottom plate for 30 seconds, the white shallow bottom plate was left at room temperature for 4 hours or more in the dark. The white superficial plate after being left was subjected to fluorescence intensity measurement (excitation wavelength: 320 nm, fluorescence wavelength: 665 nm and 615 nm) by EnVision (Perkin Elmer).
The binding inhibition rate (%) was calculated based on the HTRF ratio in the presence of the test compound to the HTRF ratio in the absence of the test compound (fluorescence intensity at 665 nm/fluorescence intensity at 615 nm).

T1 sequence (P98170 252-356 limits assumed): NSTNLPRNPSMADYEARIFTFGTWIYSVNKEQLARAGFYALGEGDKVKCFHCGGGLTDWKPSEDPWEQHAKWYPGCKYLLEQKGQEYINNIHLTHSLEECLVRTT

Row | Structure (SMILES) | IC50 [µM]
1 | CN[C@@H](C)C(=O)N[C@@H](C(=O)N1CCN(C(=O)c2cc3cc(F)c(F)cc3n2CCOCCOCc2ccccc2)CC1)C1CCCCC1 [Example 46, (S)—N—((R)-2-(4-(1-(2-(2-(Benzyloxy)ethoxy)ethyl)-5,6-difluoro-1H-indole-2-carbonyl)piperazin-1-yl)-1-cyclohexyl-2-oxoethyl)-2-(methylamino)propanamide Hydrochloride] | 3 to 30
2 | CN[C@@H](C)C(=O)N[C@H](C(=O)N1CCN(C(=O)c2cc3cc(F)c(F)cc3n2CCOCCOCCO)CC1)C1CCCCC1 [Example 47, (S)—N—((S)-1-Cyclohexyl-2-(4-(5,6-difluoro-1-(2-(2-(2-hydroxyethoxy)ethoxy)ethyl)-1H-indole-2-carbonyl)piperazin-1-yl)-2-oxoethyl)-2-(methylamino)propanamide] | 3 to 30
3 | CN[C@@H](C)C(=O)N[C@H](C(=O)N1CCN(C(=O)c2cc3cc(F)c(F)cc3n2CCOCCOCCOCCO)CC1)C1CCCCC1 [Example 48, (S)—N—((S)-1-Cyclohexyl-2-(4-(5,6-difluoro-1-(2-(2-(2-(2-hydroxyethoxy)ethoxy)ethoxy)ethyl)-1H-indole-2-carbonyl)piperazin-1-yl)-2-oxoethyl)-2-(methylamino)propanamide] | 3 to 30
4 | CN[C@@H](C)C(=O)N[C@H](C(=O)N1CCN(C(=O)c2c(OCCOCCOCc3ccccc3)c3cc(F)c(F)cc3n2C)CC1)C1CCCCC1 [Example 49, (S)—N—((S)-2-(4-(3-(2-(2-(Benzyloxy)ethoxy)ethoxy)-5,6-difluoro-1-methyl-1H-indole-2-carbonyl)piperazin-1-yl)-1-cyclohexyl-2-oxoethyl)-2-(methylamino)propanamide] | 3 to 30
5 | CN[C@@H](C)C(=O)N[C@H](C(=O)N1CCN(C(=O)c2c(OCCOCCO)c3cc(F)c(F)cc3n2C)CC1)C1CCCCC1 [Example 50, (S)—N—((S)-1-Cyclohexyl-2-(4-(5,6-difluoro-3-(2-(2-hydroxyethoxy)ethoxy)-1-methyl-1H-indole-2-carbonyl)piperazin-1-yl)-2-oxoethyl)-2-(methylamino)propanamide] | 3 to 30
6 | CN[C@@H](C)C(=O)N[C@H](C(=O)N1CCN(C(=O)c2c(C)c3ccccc3n2CCOC)CC1)C1CCCCC1 [Example 51, (S)—N—((S)-1-Cyclohexyl-2-(4-(1-(2-methoxyethyl)-3-methyl-1H-indole-2-carbonyl)piperazin-1-yl)-2-oxoethyl)-2-(methylamino)propanamide] | 3 to 30
7 | CN[C@@H](C)C(=O)N[C@H](C(=O)N1CCN(C(=O)c2cc3cc(F)ccc3n2CCOC)CC1)C1CCCCC1 [Example 52, (S)—N—((S)-1-Cyclohexyl-2-(4-(5-fluoro-1-(2-methoxyethyl)-1H-indole-2-carbonyl)piperazin-1-yl)-2-oxoethyl)-2-(methylamino)propanamide] | 3 to 30
8 | CN[C@@H](C)C(=O)N[C@H](C(=O)N1CCN(C(=O)c2cc3ccc(F)cc3n2CCOC)CC1)C1CCCCC1 [Example 53, (S)—N—((S)-1-cyclohexyl-2-(4-(6-fluoro-1-(2-methoxyethyl)-1H-indole-2-carbonyl)piperazin-1-yl)-2-oxoethyl)-2-(methylamino)propanamide] | 3 to 30
9 | CN[C@@H](C)C(=O)N[C@H](C(=O)N1CCN(C(=O)c2cc3cc(F)c(F)cc3n2CCOC)CC1)C1CCCCC1 [Example 54, (S)—N—((S)-1-Cyclohexyl-2-(4-(5,6-difluoro-1-(2-methoxyethyl)-1H-indole-2-carbonyl)piperazin-1-yl)-2-oxoethyl)-2-(methylamino)propanamide] | 3 to 30
10 | CN[C@@H](C)C(=O)N[C@H](C(=O)N1CCN(C(=O)c2cc3cc(F)c(F)cc3n2C)C[C@H]1C)C1CCCCC1 [Example 56, (S)—N—((S)-1-Cyclohexyl-2-((R)-4-(5,6-difluoro-1-methyl-1H-indole-2-carbonyl)-2-methylpiperazin-1-yl)-2-oxoethyl)-2-(methylamino)propanamide Trifluoroacetate] | 3 to 30
